pEC50: −log10 of the molar value.
Experiments:
Assay type in all cases: cell-based, murine and human
Conditions in all cases: 20-24 hours
[1] = target: T1, PPAR-alpha ligand binding domain fused to GAL4 DNA binding domain (UniProt Q07869); test: Transient transfection transactivation assay in CV-1 cells, PPAR-alpha (GAL4 chimera, luciferase reporter)
T1 sequence (Q07869 1-468): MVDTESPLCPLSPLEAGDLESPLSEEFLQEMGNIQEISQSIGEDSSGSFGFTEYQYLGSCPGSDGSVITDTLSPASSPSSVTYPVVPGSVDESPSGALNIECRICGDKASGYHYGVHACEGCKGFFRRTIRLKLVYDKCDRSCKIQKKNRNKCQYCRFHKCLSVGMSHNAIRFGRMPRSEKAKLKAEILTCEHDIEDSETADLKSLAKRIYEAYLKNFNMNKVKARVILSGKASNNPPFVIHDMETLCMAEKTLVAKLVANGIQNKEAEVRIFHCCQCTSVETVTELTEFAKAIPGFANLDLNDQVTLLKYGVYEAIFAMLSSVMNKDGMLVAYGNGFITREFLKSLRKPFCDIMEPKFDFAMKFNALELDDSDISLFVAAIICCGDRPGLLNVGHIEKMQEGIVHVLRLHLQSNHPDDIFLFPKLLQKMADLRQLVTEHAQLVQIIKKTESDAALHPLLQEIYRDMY
Text: (§1) Compounds may be screened for functional potency in transient transfection assays in CV-1 cells for their ability to activate the PPAR subtypes (transactivation assay). A previously established chimeric receptor system was utilized to allow comparison of the relative transcriptional activity of the receptor subtypes on the same synthetic response element and to prevent endogenous receptor activation from complicating the interpretation of results. See, for example, Lehmann, J. M.; Moore, L. B.; Smith-Oliver, T. A; Wilkinson, W. O.; Willson, T. M.; Kliewer, S. A., An antidiabetic thiazolidinedione is a high affinity ligand for peroxisome proliferator-activated receptor […], J. Biol. Chem., 1995, 270, 12953-6. The ligand binding domains for murine and human PPAR-alpha, PPAR-gamma, and PPAR-delta are each fused to the yeast transcription factor GAL4 DNA binding domain. CV-1 cells were transiently transfected with expression vectors for the respective PPAR chimera along with a reporter construct containing four or five copies of the GAL4 DNA binding site driving expression of luciferase. After 8-16 h, the cells are replated into multi-well assay plates and the media is exchanged to phenol-red free DME medium supplemented with 5% delipidated calf serum. 4 hours after replating, cells were treated with either compounds or 1% DMSO for 20-24 hours. Luciferase activity was then assayed with Britelite (Perkin Elmer) following the manufacturer's protocol and measured with either the Perkin Elmer Viewlux or Molecular Devices Acquest (see, for example, Kliewer, S. A., et. al. Cell 1995, 83, 813-819). Rosiglitazone is used as a positive control in the PPARγ assay. Wy-14643 and GW7647 are used as positive controls in the PPARα assay. GW501516 is used as the positive control in the PPARδ assay.

[2] = target: T2, PPAR-delta ligand binding domain fused to GAL4 DNA binding domain (UniProt Q03181); test: Transient transfection transactivation assay in CV-1 cells, PPAR-delta (GAL4 chimera, luciferase reporter)
T2 sequence (Q03181 1-441): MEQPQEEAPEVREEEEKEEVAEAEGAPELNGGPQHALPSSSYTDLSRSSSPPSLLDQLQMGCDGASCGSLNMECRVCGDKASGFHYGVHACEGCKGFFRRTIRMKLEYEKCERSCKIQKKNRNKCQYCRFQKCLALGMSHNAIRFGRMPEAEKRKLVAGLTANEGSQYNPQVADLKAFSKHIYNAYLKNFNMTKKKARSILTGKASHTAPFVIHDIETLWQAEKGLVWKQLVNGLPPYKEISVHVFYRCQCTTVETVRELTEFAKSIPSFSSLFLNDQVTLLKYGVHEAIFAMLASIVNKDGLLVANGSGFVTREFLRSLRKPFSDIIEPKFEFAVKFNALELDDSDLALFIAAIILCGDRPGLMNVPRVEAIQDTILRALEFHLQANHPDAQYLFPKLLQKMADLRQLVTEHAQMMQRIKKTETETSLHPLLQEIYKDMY
Text: as §1

[3] = target: T3, PPAR-gamma ligand binding domain fused to GAL4 DNA binding domain (UniProt P37231); test: Transient transfection transactivation assay in CV-1 cells, PPAR-gamma (GAL4 chimera, luciferase reporter)
T3 sequence (P37231 1-505): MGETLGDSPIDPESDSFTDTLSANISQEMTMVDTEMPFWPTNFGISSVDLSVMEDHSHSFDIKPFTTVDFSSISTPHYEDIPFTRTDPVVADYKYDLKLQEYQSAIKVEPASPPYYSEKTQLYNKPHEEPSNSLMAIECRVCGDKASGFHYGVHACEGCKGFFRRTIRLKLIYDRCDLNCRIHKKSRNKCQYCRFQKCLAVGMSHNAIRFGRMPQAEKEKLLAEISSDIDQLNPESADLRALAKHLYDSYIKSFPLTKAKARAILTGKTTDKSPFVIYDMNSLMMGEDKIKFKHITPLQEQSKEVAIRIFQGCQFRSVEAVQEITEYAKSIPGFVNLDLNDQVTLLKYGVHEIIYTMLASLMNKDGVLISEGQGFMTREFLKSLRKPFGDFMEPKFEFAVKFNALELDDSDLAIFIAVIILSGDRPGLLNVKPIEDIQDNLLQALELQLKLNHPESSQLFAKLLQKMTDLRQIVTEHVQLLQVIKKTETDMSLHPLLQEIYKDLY
Text: as §1

pEC50 [1]	pEC50 [2]	pEC50 [3]	SMILES
< 4.00	> 5.30	4.00 to 5.30	C[C@@H]1CN(S(=O)(=O)c2ccc(OC(F)(F)F)cc2)C[C@H](C)N1S(=O)(=O)c1cccc2c1CC(C(=O)O)C2 (stereo partly drawn) [Example 11, 4-(cis-2,6-Dimethyl-4-(4-(trifluoromethoxy)phenylsulfonyl)piperazin-1-ylsulfonyl)-2,3-dihydro-1H-indene-2-carboxylic acid]
< 4.00	4.00 to 5.30	< 4.00	C[C@@H]1CN(C(=O)Cc2ccc(C(F)(F)F)cc2)C[C@H](C)N1S(=O)(=O)c1cccc2c1CC(C(=O)O)C2 (stereo partly drawn) [Example 13, 4-(cis-2,6-Dimethyl-4-(2-(4-(trifluoromethyl)phenyl)acetyl)piperazin-1-ylsulfonyl)-2,3-dihydro-1H-indene-2-carboxylic acid]
< 4.00	> 5.30	4.00 to 5.30	C[C@@H]1CN(CCCc2ccc(OC(F)(F)F)cc2)C[C@H](C)N1S(=O)(=O)c1cccc2c1CC(C(=O)O)C2 (stereo partly drawn) [Example 17, 4-(cis-2,6-dimethyl-4-(3-(4-(trifluoromethoxy)phenyl)propyl)piperazin-1-ylsulfonyl)-2,3-dihydro-1H-indene-2-carboxylic acid]
4.00 to 5.30	> 5.30	4.00 to 5.30	C[C@@H]1CN(CCc2ccc(SC(F)(F)F)cc2)C[C@H](C)N1S(=O)(=O)c1cccc2c1CC(C(=O)O)C2 (stereo partly drawn) [Example 23, 4-((cis)-2,6-Dimethyl-4-(4-(trifluoromethylthio)phenethyl)piperazin-1-ylsulfonyl)-2,3-dihydro-1H-indene-2-carboxylic acid]
< 4.00	> 5.30	< 4.00	C[C@@H]1CN(CCc2ccc(Cl)cc2)C[C@H](C)N1S(=O)(=O)c1cccc2c1CC(C(=O)O)C2 (stereo partly drawn) [Example 24, 4-(4-(4-chlorophenethyl)-(cis)-2,6-dimethylpiperazin-1-ylsulfonyl)-2,3-dihydro-1H-indene-2-carboxylic acid]
< 4.00	> 5.30	< 4.00	C[C@@H]1CN(CC2(c3ccc(Cl)cc3)CC2)C[C@H](C)N1S(=O)(=O)c1cccc2c1CC(C(=O)O)C2 (stereo partly drawn) [Example 25, 4-(4-((1-(4-chlorophenyl)cyclopropyl)methyl)-(cis)-2,6-dimethylpiperazin-1-ylsulfonyl)-2,3-dihydro-1-H-indene-2-carboxylic acid]
< 4.00	> 5.30	< 4.00	C[C@@H]1CN(CCc2ccc(C(F)(F)F)c(F)c2)C[C@H](C)N1S(=O)(=O)c1cccc2c1CC(C(=O)O)C2 (stereo partly drawn) [Example 26, 4-(4-(3-Fluoro-4-(trifluoromethyl)phenethyl)-(cis)-2,6-dimethylpiperazin-1-ylsulfonyl)-2,3-dihydro-1H-indene-2-carboxylic acid]
< 4.00	> 5.30	< 4.00	C[C@@H]1CN(CCc2ccc(Cl)c(Cl)c2)C[C@H](C)N1S(=O)(=O)c1cccc2c1CC(C(=O)O)C2 (stereo partly drawn) [Example 27]

The next lines start with the molecule.

SMILES	pEC50 [1]	pEC50 [2]	pEC50 [3]
O=C(O)C1Cc2cccc(S(=O)(=O)N3CCN(S(=O)(=O)c4ccc(OC(F)(F)F)cc4)CC3)c2C1 (stereo not drawn) [Example 10, 4-(4-(4-(Trifluoromethoxy)phenylsulfonyl)piperazin-1-ylsulfonyl)-2,3-dihydro-1H-indene-2-carboxylic acid]	< 4.00	4.00 to 5.30	4.00 to 5.30
O=C(O)C1Cc2cccc(S(=O)(=O)N3CCN(CCc4ccc(OC(F)(F)F)cc4)CC3)c2C1 (stereo not drawn) [Example 15, 4-(4-(4-(Trifluoromethoxy)phenethyl)piperazin-1-ylsulfonyl)-2,3-dihydro-1H-indene-2-carboxylic acid]	4.00 to 5.30	> 5.30	4.00 to 5.30
O=C(O)C1Cc2cccc(S(=O)(=O)N3CCN(C(=O)CCc4ccc(OC(F)(F)F)cc4)CC3)c2C1 (stereo not drawn) [Example 16, 4-(4-(3-(4-(Trifluoromethoxy)phenyl)propanoyl)piperazin-1-ylsulfonyl)-2,3-dihydro-1H-indene-2-carboxylic acid]	< 4.00	4.00 to 5.30	< 4.00
O=C(O)C1Cc2cccc(S(=O)(=O)N3CCN(C(=O)c4ccc(OC(F)(F)F)cc4)CC3)c2C1 (stereo not drawn) [Example 18, 4-(4-(4-(trifluoromethoxy)benzoyl)piperazin-1-ylsulfonyl)-2,3-dihydro-1H-indene-2-carboxylic acid]	< 4.00	4.00 to 5.30	< 4.00
O=C(O)C1Cc2cccc(S(=O)(=O)N3CCN(C(=O)Cc4ccc(OC(F)(F)F)cc4)CC3)c2C1 (stereo not drawn) [Example 19, 4-(4-(2-(4-(trifluoromethoxy)phenyl)acetyl)piperazin-1-ylsulfonyl)-2,3-dihydro-1H-indene-2-carboxylic acid]	< 4.00	4.00 to 5.30	4.00 to 5.30
O=C(O)C1Cc2cccc(S(=O)(=O)N3CCN(C(=O)Cc4ccc(C(F)(F)F)cc4)CC3)c2C1 (stereo not drawn) [Example 20, 4-(4-(2-(4-(trifluoromethyl)phenyl)acetyl)piperazin-1-ylsulfonyl)-2,3-dihydro-1H-indene-2-carboxylic acid]	< 4.00	4.00 to 5.30	4.00 to 5.30
O=C(O)C1Cc2cccc(S(=O)(=O)N3CCN(CCc4ccc(C(F)(F)F)cc4)CC3)c2C1 (stereo not drawn) [Example 21, 4-(4-(4-(trifluoromethyl)phenethyl)piperazin-1-ylsulfonyl)-2,3-dihydro-1H-indene-2-carboxylic acid]	4.00 to 5.30	> 5.30	4.00 to 5.30
O=C(O)C1Cc2cccc(S(=O)(=O)N3CCN(CCCc4ccc(OC(F)(F)F)cc4)CC3)c2C1 (stereo not drawn) [Example 22, 4-(4-(3-(4-(Trifluoromethoxy)phenyl)propyl)piperazin-1-ylsulfonyl)-2,3-dihydro-1H-indene-2-carboxylic acid]	4.00 to 5.30	> 5.30	> 5.30
C[C@@H]1CN(CC(c2ccc(Cl)cc2)c2ccc(Cl)cc2)C[C@H](C)N1S(=O)(=O)c1cccc2c1CC(C(=O)O)C2 (stereo partly drawn) [Example 28, 4-(4-(2,2bis(4-Chlorophenyl)ethyl)-(cis)-2,6-dimethylpiperazin-1-ylsulfonyl)-2,3-dihydro-1H-indene-2-carboxylic acid]	< 4.00	< 4.00	< 4.00

From patent US20070270434A1, “SULFONYL-SUBSTITUTED BICYCLIC COMPOUNDS AS MODULATORS OF PPAR” (KALYPSYS, INC., priority 2006, published 2007)
